Measurements from patent US8901114B2, “Oxathiazine derivatives substituted with carbocycles or heterocycles, method for producing same, drugs containing said compounds, and use thereof” (Sanofi, priority 2011, dated 2014).

molecular target: human 11β-HSD1 microsome fraction (Homo sapiens, UniProt P28845); test: Enzymatic 11beta-HSD1 test (SPA-based detection); type: biochemical; details: human 11β-HSD1 microsomes, [1,2-3H]-cortisone, NADPH, 37° C., 1 hour; read-out: IC50 (nM), Biological activity in nanomolar
Method: Enzymatic 11beta-HSD1 test:
First of all, 20 μl of the human 11β-HSD1 microsome fraction (0.2 μg of protein), prepared in 50 mM HEPES, 0.1% BSA (w/v), were applied to a plate with 384 wells. The test compounds (0.09 μl) were applied to the assay plate in 100% DMSO. The reaction was started by addition of 20 μl of [1,2-^3H]-cortisone (0.1 μCi/[…]) in assay buffer comprising 25 mM HEPES, 100 mM KCl, 5 mM NaCl, 2 mM MgCl2 and 0.25 mM NADPH. The plate was agitated at 37° C. for 1 hour. At the same time, a stop solution comprising 20 mg/ml SPA-PVT beads, 1.6 mg/ml monoclonal cortisol antibody and 0.01 mM SSR110887 (inhibitor from the Biovitrium patent) in 50 mM HEPES, 1 M NaCl and 1 M KCl was stirred at room temperature. To stop the reaction, 25 μl of the stop solution were added to each well. The plate was agitated gently at room temperature for 1 further hour and then centrifuged at 500 gav for […], in order that the SPA beads could settle out. […] The comparative compound was glycyrrhetinic acid.
Protein and radioactive substrate were dispensed with a Biomek FX unit (Beckman Coulter) for handling liquids. The test compounds were added with a Cybi-Well equipped with a 90 nl pin tool (CyBio).
Lit.: Solly S, Mundt S S, Zokian H J, Juy-Fang Ding G, Hermanowski-Vosatka A, Strulovici B and Zheng W. High-throughput screening of 11β-Hydroxysteroid dehydrogenase type 1 in scintillation proximity format.

human 11β-HSD1 microsome fraction, sequence (P28845 whole entry): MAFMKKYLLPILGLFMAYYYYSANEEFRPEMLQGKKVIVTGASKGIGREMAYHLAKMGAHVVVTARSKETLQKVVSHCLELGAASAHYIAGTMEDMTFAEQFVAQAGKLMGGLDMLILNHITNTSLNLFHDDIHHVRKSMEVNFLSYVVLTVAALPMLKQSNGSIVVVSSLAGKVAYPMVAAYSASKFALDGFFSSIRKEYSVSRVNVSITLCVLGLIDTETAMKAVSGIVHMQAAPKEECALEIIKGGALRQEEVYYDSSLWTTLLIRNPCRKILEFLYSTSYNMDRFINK

First: CC1(C)[C@@H]2CC[C@@]1(C)[C@H](NC1=NS(=O)(=O)C3CCCCC3O1)C2 (single isomer, unassigned) [Example 9]
Second: CC1(C)[C@@H]2CC[C@@]1(C)[C@@H](NC1=NS(=O)(=O)C3CCCCC3O1)C2 (stereo partly drawn) [Example 36, (1,1-Dioxo-4a,5,6,7,8,8a-hexahydro-1H-1lambda6-benzo[1,4,3]oxathiazin-3-yl)-((1R,2S,4R)-1,7,7-trimethyl-bicyclo[2.2.1]hept-2-yl)-amine]
The IC50 of the first is 12-fold lower: 5 nM for the first, 59 nM for the second. The first is the more potent here.

Going from `CC1(C)[C@@H]2CC[C@@]1(C)[C@H](NC1=NS(=O)(=O)C3CCCCC3O1)C2` (single isomer, unassigned) [Example 14] to `CC1(C)[C@@H]2CC[C@@]1(C)[C@H](O)[C@H]2NC1=NS(=O)(=O)C2CCCCC2O1` (stereo partly drawn) [Example 38, (1R,2S,3S,4S)-3-(1,1-Dioxo-4a,5,6,7,8,8a-hexahydro-1H-1lambda6-benzo[1,4,3]oxathiazin-3-ylamino)-1,7,7-trimethyl-bicyclo[2.2.1]heptan-2-ol], the IC50 rises from 236 nM to 570 nM (2.4-fold).

Compared with `CC12CCC(NC3=NS(=O)(=O)[C@H]4CCCC[C@H]4O3)(CC1)CC2` [Example 5, ((4aR,8aS)-1,1-Dioxo-4a,5,6,7,8,8a-hexahydro-1H-1lambda6-benzo[1,4,3]oxathiazin-3-yl)-(4-methyl-bicyclo[2.2.2]oct-1-yl)-amine], `CC12CCC(NC3=NS(=O)(=O)[C@@H]4CCCC[C@@H]4O3)(CC1)CC2` [Example 13, ((4aS,8aR)-1,1-Dioxo-4a,5,6,7,8,8a-hexahydro-1H-1lambda6-benzo[1,4,3]oxathiazin-3-yl)-(4-methyl-bicyclo[2.2.2]oct-1-yl)-amine] is 1.6-fold lower in IC50: 8 nM for the first, 5 nM for the second. The second is the more potent here.

`CC1CC(NC2=NS(=O)(=O)C3CCCCC3O2)CC(C)(C)C1` (stereo not shown) [Example 23, (1,1-Dioxo-4a,5,6,7,8,8a-hexahydro-1H-1lambda6-benzo[1,4,3]oxathiazin-3-yl)-(3,3,5-trimethyl-cyclohexyl)-amine] and `C[C@@H]1[C@@H](NC2=NS(=O)(=O)C3CCCCC3O2)C[C@H]2C[C@@H]1C2(C)C` (stereo partly drawn) [Example 56, (1,1-Dioxo-4a,5,6,7,8,8a-hexahydro-1H-1lambda6-benzo[1,4,3]oxathiazin-3-yl)-((1S,2S,3S,5R)-2,6,6-trimethyl-bicyclo[3.1.1]hept-3-yl)-amine] are within 1.5-fold of each other in IC50: 20 nM for the first, 16 nM for the second.

Compared with `CC(C)C(NC1=NS(=O)(=O)C2CCCCC2O1)c1cccs1` (stereo not shown) [Example 25, (1,1-Dioxo-4a,5,6,7,8,8a-hexahydro-1H-1lambda6-benzo[1,4,3]oxathiazin-3-yl)-(2-methyl-1-thiophen-2-yl-propyl)-amine], `CC(C)CC(CC(C)C)NC1=NS(=O)(=O)C2CCCCC2O1` (stereo not shown) [Example 55, (1,1-Dioxo-4a,5,6,7,8,8a-hexahydro-1H-1lambda6-benzo[1,4,3]oxathiazin-3-yl)-(1-isobutyl-3-methyl-butyl)-amine] is 5.5-fold higher in IC50: 121 nM for the first, 670 nM for the second. The first is the more potent here.

First: C[C@@H](NC1=NS(=O)(=O)C2CCCCC2O1)C1CCCCC1 (stereo partly drawn) [Example 29, ((R)-1-Cyclohexyl-ethyl)-(1,1-dioxo-4a,5,6,7,8,8a-hexahydro-1H-1lambda6-benzo[1,4,3]oxathiazin-3-yl)-amine]
Second: O=S1(=O)N=C(NC(C2CC2)C2CC2)OC2CCCCC21 (stereo not shown) [Example 39, Dicyclopropylmethyl-(1,1-dioxo-4a,5,6,7,8,8a-hexahydro-1H-1lambda6-benzo[1,4,3]oxathiazin-3-yl)-amine]
The IC50 of the first is 1.6-fold lower: 275 nM for the first, 440 nM for the second.

`CC1(C)C2CCC1C(NC1=NS(=O)(=O)C3CCCCC3O1)C2O` (stereo not shown) [Example 41, 3-(1,1-Dioxo-4a,5,6,7,8,8a-hexahydro-1H-1lambda6-benzo[1,4,3]oxathiazin-3-ylamino)-7,7-dimethyl-bicyclo[2.2.1]heptan-2-ol] and `O=S1(=O)N=C(N[C@H]2CC[C@H](O)CC2)OC2CCCCC21` (stereo partly shown) [Example 81, 4-(1,1-Dioxo-4a,5,6,7,8,8a-hexahydro-1H-1lambda6-benzo[1,4,3]oxathiazin-3-ylamino)-cyclohexanol] are within 1.5-fold of each other in IC50: 497 nM for the first, 355 nM for the second.

First: O=S1(=O)N=C(NCC2CCCCO2)OC2CCCCC21 (stereo not shown) [Example 47, (1,1-Dioxo-4a,5,6,7,8,8a-hexahydro-1H-1lambda6-benzo[1,4,3]oxathiazin-3-yl)-(tetrahydro-pyran-2-ylmethyl)-amine]
Second: O=S1(=O)N=C(N[C@@H]2CCCC[C@H]2CO)O[C@H]2CCCC[C@H]21 [Example 59, [(1R,2R)-2-((4aS,8aR)-1,1-Dioxo-4a,5,6,7,8,8a-hexahydro-1H-1lambda6-benzo[1,4,3]oxathiazin-3-ylamino)-cyclohexyl]-methanol]
The IC50 of the first is 4-fold lower: 165 nM for the first, 658 nM for the second. The first is the more potent here.

Compared with `O=S1(=O)N=C(NC2CCSc3ccccc32)OC2CCCCC21` (stereo not shown) [Example 48, (1,1-Dioxo-4a,5,6,7,8,8a-hexahydro-1H-1lambda6-benzo[1,4,3]oxathiazin-3-yl)-thiochroman-4-yl-amine], `O=S1(=O)N=C(N[C@@H]2C[C@H]3CC[C@@H]2C3)OC2CCCCC21` (stereo partly drawn) [Example 62, (1R,2R,4S)-Bicyclo[2.2.1]hept-2-yl-((5S,6R)-1,1-dioxo-4a,5,6,7,8,8a-hexahydro-1H-1lambda6-benzo[1,4,3]oxathiazin-3-yl)-amine] is 2.2-fold lower in IC50: 93 nM for the first, 43 nM for the second.

First: CC(C)[C@]12CC(NC3=NS(=O)(=O)C4CCCCC4O3)[C@H](C)[C@H]1C2 (stereo partly drawn) [Example 53, (1,1-Dioxo-4a,5,6,7,8,8a-hexahydro-1H-1lambda6-benzo[1,4,3]oxathiazin-3-yl)-((1S,4R,5R)-1-isopropyl-4-methyl-bicyclo[3.1.0]hex-3-yl)-amine]
Second: O=S1(=O)N=C(NC2CC[C@H]3CC[C@@H]2C3)OC2CCCCC21 (stereo partly drawn) [Example 54, (1R,5R)-Bicyclo[3.2.1]oct-2-yl-(1,1-dioxo-4a,5,6,7,8,8a-hexahydro-1H-1lambda6-benzo[1,4,3]oxathiazin-3-yl)-amine]
The IC50 of the first is 1.9-fold higher: 54 nM for the first, 29 nM for the second.

First: CC12CCC(NC3=NS(=O)(=O)C4CCCC4O3)(CC1)CC2 (stereo not shown) [Example 64, (1,1-Dioxo-1,4a,5,6,7,7a-hexahydro-1lambda6-cyclopenta[1,4,3]oxathiazin-3-yl)-(4-methyl-bicyclo[2.2.2]oct-1-yl)-amine]
Second: O=S1(=O)N=C(NC23CCC(CC2)CC3)OC2CCCC21 (stereo not shown) [Example 72, Bicyclo[2.2.2]oct-1-yl-(1,1-dioxo-1,4a,5,6,7,7a-hexahydro-1lambda6-cyclopenta[1,4,3]oxathiazin-3-yl)-amine]
The IC50 of the first is 1.9-fold lower: 38 nM for the first, 74 nM for the second.

First: O=S1(=O)N=C(NN2CC3CCCC3C2)OC2CCCCC21 (stereo not shown) [Example 65, (1,1-Dioxo-4a,5,6,7,8,8a-hexahydro-1H-1lambda6-benzo[1,4,3]oxathiazin-3-yl)-(hexahydro-cyclopenta[c]pyrrol-2-yl)-amine]
Second: O=S1(=O)N=C(NN2CCCCCC2)OC2CCCCC21 (stereo not shown) [Example 66, Azepan-1-yl-(1,1-dioxo-4a,5,6,7,8,8a-hexahydro-1H-1lambda6-benzo[1,4,3]oxathiazin-3-yl)-amine]
The IC50 of the first is 2.1-fold higher: 308 nM for the first, 148 nM for the second. The second is the more potent here.

`CC12CCCCC1S(=O)(=O)N=C(NC1CCCCC1)O2` (stereo not shown) [Example 89, Cyclohexyl-(4a-methyl-1,1-dioxo-4a,5,6,7,8,8a-hexahydro-1H-1lambda6-benzo[1,4,3]oxathiazin-3-yl)-amine] gave an IC50 of 49 nM.
